The structures appear in SMILES notation.

In this test the target is T1, human NOX4 (Homo sapiens, UniProt Q9NPH5).
T1 construct: The full-length human NOX4 (NM_016931.3) transcript was cloned; expressed in transfected cells
T1 sequence (Q9NPH5 1-578): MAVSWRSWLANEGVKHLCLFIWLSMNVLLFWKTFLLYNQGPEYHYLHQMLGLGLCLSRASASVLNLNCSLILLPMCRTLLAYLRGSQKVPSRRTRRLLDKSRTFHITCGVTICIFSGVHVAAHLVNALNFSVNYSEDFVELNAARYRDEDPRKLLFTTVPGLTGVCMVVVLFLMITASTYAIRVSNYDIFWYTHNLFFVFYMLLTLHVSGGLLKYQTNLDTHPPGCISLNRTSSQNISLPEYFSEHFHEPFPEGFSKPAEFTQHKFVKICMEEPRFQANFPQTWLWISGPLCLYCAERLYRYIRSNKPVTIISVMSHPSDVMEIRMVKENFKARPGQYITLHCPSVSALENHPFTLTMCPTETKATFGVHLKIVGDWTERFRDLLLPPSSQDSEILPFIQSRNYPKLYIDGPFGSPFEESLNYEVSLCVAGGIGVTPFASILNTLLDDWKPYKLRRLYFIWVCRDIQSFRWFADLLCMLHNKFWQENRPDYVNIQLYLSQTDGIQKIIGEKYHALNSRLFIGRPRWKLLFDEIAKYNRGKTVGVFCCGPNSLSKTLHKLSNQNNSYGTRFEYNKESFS
T1 sequence (P13498 1-195 partner): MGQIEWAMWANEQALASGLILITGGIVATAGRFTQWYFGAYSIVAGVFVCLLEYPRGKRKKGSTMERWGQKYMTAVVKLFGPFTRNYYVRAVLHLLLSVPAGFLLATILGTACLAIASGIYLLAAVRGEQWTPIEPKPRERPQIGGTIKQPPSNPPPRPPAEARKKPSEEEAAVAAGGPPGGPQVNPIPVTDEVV
Kind of test: Amplex Red activity assay (cellular H2O2 formation in hNOX4 T-REx-293 cells). Type of test: cell-based. The following applies: tet-induced 24 h, extracellular H2O2 by Amplex Red, 60 min 25° C., geometric mean if determined several times. As to the method: The nucleotide sequence and the amino acid sequence for the human NOX4 (Entrez Gene ID 50507) is known in the art and are published. The potency and efficacy of the compounds of Formula (I) are assessed for their potential to inhibit the formation of ROS in a cellular assay.
The full-length human NOX4 (NM_016931.3) transcript was cloned into the pDONR™221 vector (Life Technologies™) in order to generate, by site-specific integration according to the recommendation of the manufacturer (Life Technologies™), a recombinant pJTI™ R4 DEST CMV-TO vector containing the NOX4 coding information controlled by tetracycline (tet) responsive tet-on cytomegalovirus promoter (hNOX4 pDEST).
Modified human embryonic kidney cells overexpressing a tet receptor (Jump-In™ T-REx™ HEK293; Life Technologies™) were transfected with the NOX4-containing tet-on vector (hNOX4 pDEST) to generate a stable recombinant cell pool (hNOX4 T-REx-293). hNOX4 T-REx-293 cells were cultured in DMEM containing 4.5 g/L glucose supplemented with 10% fetal calf serum, penicillin (100 U/mL), streptomycin (100 μg/mL), geneticin (1 mg/mL), and blasticidin (5 μg/mL) at 37° C. in air with 5% CO2. Human Nox4 expression was induced with tet (1 μg/mL) for 24 h and extracellular H2O2 was quantified using the Amplex Red reagent (Life Technologies™).
Compounds were prepared as 10 mM stock solution in DMSO vehicle, then diluted in 384-well plates using DMSO followed by a transfer of the dilutions into the assay plate. As a control, diphenylene iodonium was included at a final concentration of 10 μM. Compounds were tested at 10 concentrations in the range from 50 μM highest to 100 nM lowest.
Cellular H2O2 formation was measured using the Amplex Red reagent. […] Cells were seeded into 384-well clear bottom plates at a density of 20 000 cells per well in presence or absence of compounds. […] All wells contained 1.25% of DMSO. The plates were kept at 25° C. for 60 min. The amount of produced resorufin was detected with the Synergy™ Mx microplate reader (BioTek) with excitation and emission wavelengths set to 550 nm and 600 nm, respectively. Fluorescence was measured for each well and the fluorescence at 600 nm wavelength was compared to the fluorescence of the vehicle in place of compound. Inhibitory activities of example compounds were determined by calculating the IC50 value (the concentration of compound needed to inhibit 50% of the enzyme activity). The calculated IC50 values may fluctuate depending on the daily cellular assay performance. Fluctuations of this kind are known to those skilled in the art.
As to `O=C(Nc1ccc2oc(N3CCC3c3ccccc3)nc2c1)c1ccc2c(c1)CCO2` (racemic) [Example 62, rac-2,3-Dihydro-benzofuran-5-carboxylic acid [2-(2-phenyl-azetidin-1-yl)-benzooxazol-5-yl]-amide], the IC50 amounted to 702 nM. The figure for `O=C(Nc1ccc2sc(N3CCC3c3ccccc3)nc2c1)c1ccc2c(c1)CCO2` (racemic) [Example 111, rac-2,3-Dihydro-benzofuran-5-carboxylic acid [2-(2-phenyl-azetidin-1-yl)-benzothiazol-5-yl]-amide] is 1090 nM; for `O=C(Nc1ccc2oc(N3CCCCC3)nc2c1)c1ccc2c(c1)CCO2` [Example 2, 2,3-Dihydro-benzofuran-5-carboxylic acid (2-piperidin-1-yl-benzooxazol-5-yl)-amide] it is 639 nM. Take `O=C(Nc1ccc2oc(N3CCCC3)nc2c1)c1ccc2c(c1)CCO2` [Example 3, 2,3-Dihydro-benzofuran-5-carboxylic acid (2-pyrrolidin-1-yl-benzooxazol-5-yl)-amide]: the IC50 was found to be 899 nM. As for `CN1CCN(c2nc3cc(NC(=O)c4ccc5c(c4)CCO5)ccc3o2)CC1` [Example 4, 2,3-Dihydro-benzofuran-5-carboxylic acid [2-(4-methyl-piperazin-1-yl)-benzooxazol-5-yl]-amide], the IC50 turned out to be 967 nM. Take `O=C(Nc1ccc2oc(N3CCOCC3)nc2c1)c1ccc2c(c1)CCO2` [Example 5, 2,3-Dihydro-benzofuran-5-carboxylic acid (2-morpholin-4-yl-benzooxazol-5-yl)-amide]: the IC50 was 627 nM.

Regarding `CCN(CC)c1nc2cc(NC(=O)c3ccc4c(c3)CCO4)ccc2o1` [Example 6, 2,3-Dihydro-benzofuran-5-carboxylic acid (2-diethylamino-benzooxazol-5-yl)-amide], the IC50 is 559 nM. With `O=C(Nc1ccc2oc(N3CCC(F)(F)CC3)nc2c1)c1ccc2c(c1)CCO2` [Example 7, 2,3-Dihydro-benzofuran-5-carboxylic acid [2-(4,4-difluoro-piperidin-1-yl)-benzooxazol-5-yl]-amide], the IC50 came to 358 nM. For the molecule `O=C(Nc1ccc2oc(N3CC(F)(F)C3)nc2c1)c1ccc2c(c1)CCO2` [Example 8, 2,3-Dihydro-benzofuran-5-carboxylic acid [2-(3,3-difluoro-azetidin-1-yl)-benzooxazol-5-yl]-amide], the IC50 turned out to be 1890 nM. Turning to `O=C(Nc1ccc2oc(N3CCC(F)(F)C3)nc2c1)c1ccc2c(c1)CCO2` [Example 9, 2,3-Dihydro-benzofuran-5-carboxylic acid [2-(3,3-difluoro-pyrrolidin-1-yl)-benzooxazol-5-yl]-amide], the IC50 was 573 nM. Turning to `COC1CCN(c2nc3cc(NC(=O)c4ccc5c(c4)CCO5)ccc3o2)C1` (stereo not shown) [Example 10, 2,3-Dihydro-benzofuran-5-carboxylic acid [2-(3-methoxy-pyrrolidin-1-yl)-benzooxazol-5-yl]-amide], the IC50 amounted to 711 nM. Regarding `COC1CCN(c2nc3cc(NC(=O)c4ccc5c(c4)CCO5)ccc3o2)CC1` [Example 11, 2,3-Dihydro-benzofuran-5-carboxylic acid [2-(4-methoxy-piperidin-1-yl)-benzooxazol-5-yl]-amide], the IC50 was 358 nM. The figure for `CC1(O)CN(c2nc3cc(NC(=O)c4ccc5c(c4)CCO5)ccc3o2)C1` [Example 12, 2,3-Dihydro-benzofuran-5-carboxylic acid [2-(3-hydroxy-3-methyl-azetidin-1-yl)-benzooxazol-5-yl]-amide] is 688 nM. With `CN(C)CCN(C)c1nc2cc(NC(=O)c3ccc4c(c3)CCO4)ccc2o1` [Example 13, 2,3-Dihydro-benzofuran-5-carboxylic acid {2-[(2-dimethylamino-ethyl)-methyl-amino]-benzooxazol-5-yl}-amide; compound with formic acid], the IC50 amounted to 5360 nM. In the case of `CN(C)C1CCN(c2nc3cc(NC(=O)c4ccc5c(c4)CCO5)ccc3o2)CC1` [Example 14, 2,3-Dihydro-benzofuran-5-carboxylic acid [2-(4-dimethylamino-piperidin-1-yl)-benzooxazol-5-yl]-amide; compound with formic acid], the IC50 came out at 1700 nM. Consider `O=C(Nc1ccc2oc(N3CCC34COC4)nc2c1)c1ccc2c(c1)CCO2` [Example 15, 2,3-Dihydro-benzofuran-5-carboxylic acid [2-(6-oxa-1-aza-spiro[3.3]hept-1-yl)-benzooxazol-5-yl]-amide], for which the IC50 was 405 nM. Regarding `O=C(Nc1ccc2oc(N3CCCC(F)(F)C3)nc2c1)c1ccc2c(c1)CCO2` [Example 16, 2,3-Dihydro-benzofuran-5-carboxylic acid [2-(3,3-difluoro-pipeiidin-1-yl)-benzooxazol-5-yl]-amide], the IC50 was 389 nM. In the case of `O=C(Nc1ccc2oc(N3CC(N4CCOCC4)C3)nc2c1)c1ccc2c(c1)CCO2` [Example 17, 2,3-Dihydro-benzofuran-5-carboxylic acid [2-(3-morpholin-4-yl-azetidin-1-yl)-benzooxazol-5-yl]-amide], the IC50 is 2300 nM. Turning to `CN(c1nc2cc(NC(=O)c3ccc4c(c3)CCO4)ccc2o1)C1(C)COC1` [Example 18, 2,3-Dihydro-benzofuran-5-carboxylic acid {2-[methyl-(3-methyl-oxetan-3-yl)-amino]-benzooxazol-5-yl}-amide], the IC50 is 568 nM. Consider `O=C(Nc1ccc2oc(N3CC(N4CCS(=O)(=O)CC4)C3)nc2c1)c1ccc2c(c1)CCO2` [Example 19, 2,3-Dihydro-benzofuran-5-carboxylic acid {2-[3-(1,1-dioxo-1l6-thiomoipholin-4-yl)-azetidin-1-yl]-benzooxazol-5-yl}-amide], for which the IC50 was found to be 2890 nM. As for `CC1(O)CN(C2CN(c3nc4cc(NC(=O)c5ccc6c(c5)CCO6)ccc4o3)C2)C1` [Example 20, 2,3-Dihydro-benzofuran-5-carboxylic acid [2-(3-hydroxy-3-methyl-[1,3′]biazetidinyl-1′-yl)-benzooxazol-5-yl]-amide], the IC50 came out at 1400 nM.

For `O=C(Nc1ccc2oc(N3CC4(CCO4)C3)nc2c1)c1ccc2c(c1)CCO2` [Example 21, 2,3-Dihydro-benzofuran-5-carboxylic acid [2-(1-oxa-6-aza-spiro[3.3]hept-6-yl)-benzooxazol-5-yl]-amide], the IC50 was 1610 nM.

As for `O=C(Nc1ccc2oc(N3CCC4(COC4)C3)nc2c1)c1ccc2c(c1)CCO2` [Example 22, 2,3-Dihydro-benzofuran-5-carboxylic acid [2-(2-oxa-6-aza-spiro[3.4]oct-6-yl)-benzooxazol-5-yl]-amide], the IC50 turned out to be 505 nM. Take `O=C(Nc1ccc2oc(N3CC4(CCCOC4)C3)nc2c1)c1ccc2c(c1)CCO2` [Example 23, 2,3-Dihydro-benzofuran-5-carboxylic acid [2-(6-oxa-2-aza-spiro[3.5]non-2-yl)-benzooxazol-5-yl]-amide]: the IC50 was 1470 nM. The figure for `O=C(Nc1ccc2oc(N3CCCC34COC4)nc2c1)c1ccc2c(c1)CCO2` [Example 24, 2,3-Dihydro-benzofuran-5-carboxylic acid [2-(2-oxa-5-aza-spiro[3.4]oct-5-yl)-benzooxazol-5-yl]-amide] is 352 nM.

The values are drawn from US11136317B2, “NADPH oxidase 4 inhibitors” (ACTELION PHARMACEUTICALS LTD, priority 2015, dated 2021).
